Source: publication PMC4113215 (Biochemical and biophysical research communications, 2014)

Legend:
[1] = target: T1, prDMGDH-var2 (precursor DMGDHvar-2) (Rattus norvegicus, UniProt Q63342); assay: X-ray crystal structure, […] Å; type: binding; conditions: covalent; histidyl(N3)-(8alpha)FAD at His84; THF also bound
T1 sequence (Q63342 1-857): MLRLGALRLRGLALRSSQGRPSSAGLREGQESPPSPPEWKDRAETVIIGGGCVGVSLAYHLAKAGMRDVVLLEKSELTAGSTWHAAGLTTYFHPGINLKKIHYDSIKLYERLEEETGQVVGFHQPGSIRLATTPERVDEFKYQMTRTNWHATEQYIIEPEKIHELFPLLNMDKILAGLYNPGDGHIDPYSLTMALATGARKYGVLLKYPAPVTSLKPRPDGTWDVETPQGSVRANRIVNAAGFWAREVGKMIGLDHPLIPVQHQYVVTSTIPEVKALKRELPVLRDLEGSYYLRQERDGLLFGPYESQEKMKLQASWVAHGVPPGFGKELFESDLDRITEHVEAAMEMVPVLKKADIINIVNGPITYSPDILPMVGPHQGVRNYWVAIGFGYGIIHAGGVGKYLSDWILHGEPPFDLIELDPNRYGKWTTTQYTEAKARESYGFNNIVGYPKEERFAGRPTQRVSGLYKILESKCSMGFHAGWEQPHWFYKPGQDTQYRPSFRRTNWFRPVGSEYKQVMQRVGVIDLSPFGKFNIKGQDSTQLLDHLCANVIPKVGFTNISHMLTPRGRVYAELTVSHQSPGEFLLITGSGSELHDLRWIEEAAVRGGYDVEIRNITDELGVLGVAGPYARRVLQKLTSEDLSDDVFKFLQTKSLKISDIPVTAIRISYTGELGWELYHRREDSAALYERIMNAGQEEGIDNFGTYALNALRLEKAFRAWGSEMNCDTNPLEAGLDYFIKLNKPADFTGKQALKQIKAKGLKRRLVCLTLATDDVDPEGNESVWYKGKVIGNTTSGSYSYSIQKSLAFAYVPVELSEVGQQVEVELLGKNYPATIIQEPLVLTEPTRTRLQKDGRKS

[2] = target: T2, mDMGDH (mature rat DMGDH) (Rattus norvegicus, UniProt Q63342); assay: X-ray crystal structure, […] Å; type: binding; conditions: covalent; histidyl(N3)-(8alpha)FAD at His84; no folate
T2 sequence (Q63342 22-857): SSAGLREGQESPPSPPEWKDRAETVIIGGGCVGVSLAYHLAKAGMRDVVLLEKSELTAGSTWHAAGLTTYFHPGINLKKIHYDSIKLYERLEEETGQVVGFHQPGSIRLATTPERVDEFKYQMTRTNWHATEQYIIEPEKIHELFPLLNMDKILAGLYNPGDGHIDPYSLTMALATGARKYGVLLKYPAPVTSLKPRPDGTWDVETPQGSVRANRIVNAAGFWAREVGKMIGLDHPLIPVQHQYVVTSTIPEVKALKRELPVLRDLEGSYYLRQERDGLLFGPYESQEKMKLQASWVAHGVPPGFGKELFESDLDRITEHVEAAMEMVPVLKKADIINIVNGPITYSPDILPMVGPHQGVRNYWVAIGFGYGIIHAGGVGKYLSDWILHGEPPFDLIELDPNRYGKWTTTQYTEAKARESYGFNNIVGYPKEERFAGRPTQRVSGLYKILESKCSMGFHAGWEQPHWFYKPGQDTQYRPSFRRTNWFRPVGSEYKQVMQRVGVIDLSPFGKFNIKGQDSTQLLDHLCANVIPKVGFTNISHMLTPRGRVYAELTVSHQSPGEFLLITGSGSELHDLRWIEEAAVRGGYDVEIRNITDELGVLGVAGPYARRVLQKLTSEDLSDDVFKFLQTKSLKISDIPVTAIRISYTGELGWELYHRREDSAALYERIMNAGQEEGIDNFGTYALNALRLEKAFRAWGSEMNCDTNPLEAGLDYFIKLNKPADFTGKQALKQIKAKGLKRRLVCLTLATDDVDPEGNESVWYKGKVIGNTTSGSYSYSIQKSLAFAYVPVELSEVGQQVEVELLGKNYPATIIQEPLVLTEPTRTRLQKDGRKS

SMILES: Cc1cc2nc3c(=O)[nH]c(=O)nc-3n(C[C@H](O)[C@H](O)[C@H](O)COP(=O)(O)OP(=O)(O)OC[C@H]3O[C@@H](n4cnc5c(N)ncnc54)[C@H](O)[C@@H]3O)c2cc1C [FAD]
- X-ray crystal structure, 1.85 Å [1]: two covalently bound FAD molecules, two folate molecules
- X-ray crystal structure, 2.32 Å [2]: N-terminal domain covalently binds cofactor FAD through His84
